Blank lines part the entries; values can stand above or below the molecule they belong to.
Tests used:
V-H^+-ATPase = target: T1, V-H^+-ATPase; test: ACMA fluorescence quench, ATP-driven H+ pumping in tonoplast vesicles; assay type: biochemical, Solanum tuberosum; settings: 1 mM Mg ATP, 10 mM Mops-TRIS pH 7.0, 5 mM MgCl2, 100 mM KCl; inhibition; cultivar not told
T1 construct: gene VHA-c; native V1Vo complex in tonoplast-enriched leaf vesicles; with V-type proton ATPase catalytic subunit A; V-type proton ATPase subunit B

V-H^+-PPase (cv. Mozart) = test system: T2, V-H^+-PPase (cv. Mozart); settings: 10 mM Mops-TRIS pH 7.0, 5 mM MgCl2, 100 mM KCl; vesicles from control plants (0 mM NaCl)
T2 construct: gene StVP1

[1] = test system: T3, V-H^+-PPase (cv. Desiree); settings: 10 mM Mops-TRIS pH 7.0, 5 mM MgCl2, 100 mM KCl; vesicles from control plants (0 mM NaCl)
T3 construct: gene StVP1

[2] = test system: T4, V-H^+-ATPase (cv. Mozart); test: ACMA fluorescence quench, initial rate of H+ pumping in tonoplast vesicles; assay type: biochemical, Solanum tuberosum; settings: 10 mM Mops-TRIS pH 7.0, 5 mM MgCl2, 100 mM KCl; vesicles from control plants (0 mM NaCl)
T4 construct: gene VHA-A; subunit A 69 kDa on blot; with V-type proton ATPase 16 kDa proteolipid subunit; V-type proton ATPase subunit a

[3] = test system: T5, V-H^+-ATPase (cv. Desiree); test: as above; assay type: biochemical, Solanum tuberosum; settings: 10 mM Mops-TRIS pH 7.0, 5 mM MgCl2, 100 mM KCl; vesicles from control plants (0 mM NaCl)
T5 construct: gene VHA-A; subunit A 69 kDa on blot; with V-type proton ATPase 16 kDa proteolipid subunit; V-type proton ATPase subunit a

SMILES: CO/C1=C\C(C)=C\[C@@H](C)[C@@H](O)[C@@H](C)C/C(C)=C/C=C/[C@H](OC)[C@@H]([C@@H](C)[C@@H](O)[C@H](C)[C@@]2(O)C[C@@H](O)[C@H](C)[C@@H](C(C)C)O2)OC1=O [bafilomycin]
EC50 (V-H^+-ATPase): 200 pM

Km (V-H^+-PPase (cv. Mozart)): 9.6 ± 0.8 µM
Km [1]: 7.3 ± 1.1 µM
SMILES: O=P(O)(O)OP(=O)(O)O [PPi]

Km [2]: 28 µM
Km [3]: 81 µM
SMILES: Nc1ncnc2c1ncn2[C@@H]1O[C@H](COP(=O)(O)OP(=O)(O)OP(=O)(O)O)[C@@H](O)[C@H]1O [ATP]

— publication PMC5996281, “Salinity Tolerance of Two Potato Cultivars (Solanum tuberosum) Correlates With Differences in Vacuolar Transport Activity” (Frontiers in Plant Science, 2018)
